Data reported in patent publication US6355799B1, “Substituted benzene compounds, process for their preparation, and herbicidal and defoliant compositions containing them” (ISK Americas Incorporated, priority 1997, dated 2002).

How the values were obtained:
Assay type in all cases: in vivo
[1] = test system: green foxtail (Setaria viridis, SETVI); test: Pre-emerge test, greenhouse herbicide activity screening; conditions: phytotoxicity rating 0-100, 14 days after application
Excerpt: (§1) A standard greenhouse herbicide activity screening system was used to evaluate the herbicidal efficacy and crop safety of these test compounds. Seven broadleaf weed species including redroot pigweed (Amaranthus retroflexus, AMARE, velvetleaf (Abutilon theophrasti, ABUTH), sicklepod (Cassia obtusifolia, CASOB), ivyleaf morningglory (Ipomoea hederacea, IPOHE), lambsquarters (Chenopodium album, CHEAL), common ragweed (Ambrosia artemisizfolia L., AMBEL), and cocklebur (Xanthium strumarium, XANST) were used as test species. Four grass weed species including green foxtail (Setaria viridis, SETVI), barnyardgrass (Echinochloa crus-galli, ECHCG), johnsongrass (Sorghum halepense, SORHA), and large crabgrass (Digitaria sanguinalis, DIGSA) were also used. In addition, three crop species, field corn (Zea mays L., var. Dekalb 535, CORN), soybean (Glycine max L., var. Pella 86, SOY), and is upland rice (Oryza sp., var. Tebonnet, RICE) were included.
(§2) All plants were grown in 10 cm square plastic pots which were filled with a sandy loam soil mix. For pre-emerge tests, seeds were planted one day prior to application of the test compounds. For post-emerge tests, seeds were planted 8-21 days prior to the test to allow emergence and good foliage development prior to application of the test substances. At the time of the post-emerge application, plants of all species were usually at the 2-3 leaf stage of development.
(§3) All test compounds Were dissolved in acetone and applied to the test units in a volume of 187 l /ha. Test materials were applied at rates ranging from 15 g ai/ha to 1000 g ai/ha using a track sprayer equipped with a TJ8001E even flow flat fan spray nozzle. Plants were arranged on a shelf so that the top of the canopy (post-emerge) or top of the soil surface (pre-emerge) was 40-45 cm below the nozzle. Pressurized air was used to force the test solution through the nozzle as it was mechanically advanced (via electrically driven chain drive) over the top of all test plants/pots. This application simulates a typical commercial field herbicide application.
(§4) In the post-emerge test, a commercial non-ionic surfactant was also included (0.25% v/v) to enhance wetting of the leaf surfaces of target plants. Immediately after application, test units of the pre-emerge applications were watered at the soil surface to incorporate the test materials. Subsequently, these test units were bottom-watered. Post-emerge test units were always bottom-watered.
(§5) At 14 days after application of the test materials, phytotoxicity ratings were recorded. A rating scale of 0-100 was used as previously described in Research Methods in Weed Science, 2nd edition, B. Truelove, Ed., Southern Weed Science Society, Auburn University, Auburn, Ala. 1977. Briefly, “0” corresponds to no damage and “100” corresponds to complete death of all plants in the test unit. This scale was used both to determine efficacy against weed species and damage to crop species. Herbicide activity data for various compounds of this invention, which are shown by compound No. in Tables 1-8, are shown in Tables 11 and 12.

[2] = test system: large crabgrass (Digitaria sanguinalis, DIGSA); test: as above; conditions: phytotoxicity rating 0-100, 14 days after application
Excerpt: as §1, §2, §3, §4, §5

[3] = test system: ivyleaf morningglory (Ipomoea hederacea, IPOHE); test: as above; conditions: phytotoxicity rating 0-100, 14 days after application
Excerpt: as §1, §2, §3, §4, §5

[4] = test system: lambsquarters (Chenopodium album, CHEAL); test: as above; conditions: phytotoxicity rating 0-100, 14 days after application
Excerpt: as §1, §2, §3, §4, §5

[5] = test system: sicklepod (Cassia obtusifolia, CASOB); test: as above; conditions: phytotoxicity rating 0-100, 14 days after application
Excerpt: as §1, §2, §3, §4, §5

[6] = test system: barnyardgrass (Echinochloa crus-galli, ECHCG); test: as above; conditions: phytotoxicity rating 0-100, 14 days after application
Excerpt: as §1, §2, §3, §4, §5

[7] = test system: velvetleaf (Abutilon theophrasti, ABUTH); test: as above; conditions: phytotoxicity rating 0-100, 14 days after application
Excerpt: as §1, §2, §3, §4, §5

[8] = test system: redroot pigweed (Amaranthus retroflexus, AMARE); test: as above; conditions: phytotoxicity rating 0-100, 14 days after application
Outline: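 Plants grown in 10 cm pots of sandy loam mix received acetone-dissolved compounds through a moving flat-fan nozzle. Doses ranged from 15 to 1000 g ai/ha. Pre-emerge pots were seeded one day earlier, post-emerge pots 8–21 days earlier. Fourteen days on, each pot was graded 0–100 for damage.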

[9] = test system: green foxtail (Setaria viridis, SETVI); test: Post-emerge test, greenhouse herbicide activity screening; conditions: post-emerge, 14 days after application, rating scale 0-100
Excerpt: as §1, §2, §3, §4, §5

[10] = test system: large crabgrass (Digitaria sanguinalis, DIGSA); test: as above; conditions: post-emerge, 14 days after application, rating scale 0-100
Excerpt: as §1, §2, §3, §4, §5

[11] = test system: ivyleaf morningglory (Ipomoea hederacea, IPOHE); test: as above; conditions: post-emerge, 14 days after application, rating scale 0-100
Excerpt: as §1, §2, §3, §4, §5

[12] = test system: lambsquarters (Chenopodium album, CHEAL); test: as above; conditions: post-emerge, 14 days after application, rating scale 0-100
Excerpt: as §1, §2, §3, §4, §5

[13] = test system: redroot pigweed (Amaranthus retroflexus, AMARE); test: as above; conditions: post-emerge, 14 days after application
Excerpt: as §1, §2, §3, §4, §5

[14] = test system: sicklepod (Cassia obtusifolia, CASOB); test: as above; conditions: post-emerge, 14 days after application, rating scale 0-100
Excerpt: as §1, §2, §3, §4, §5

[15] = test system: barnyardgrass (Echinochloa crus-galli, ECHCG); test: as above; conditions: post-emerge, 14 days after application, rating scale 0-100
Excerpt: as §1, §2, §3, §4, §5

[16] = test system: velvetleaf (Abutilon theophrasti, ABUTH); test: as above; conditions: post-emerge, 14 days after application, rating scale 0-100
Excerpt: as §1, §2, §3, §4, §5

[17] = test system: field corn (Zea mays L., var. Dekalb 535, CORN); test: Post-emerge test, crop safety; conditions: post-emerge, 14 days after application, rating scale 0-100
Outline: (§6)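 Herbicidal damage is scored 0 (none) to 100 (complete plant death) two weeks after a simulated field spray. Rates span 15–1000 g ai/ha, delivered in acetone at 187 l/ha. For post-emergence treatments, plants have 2–3 leaves and the spray carries 0.25% v/v non-ionic surfactant.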

[18] = test system: upland rice (Oryza sp., var. Tebonnet, RICE); test: Post-emerge test, crop safety; conditions: post-emerge, 14 days after application, rating scale 0-100
Outline: as §6

[19] = test system: field corn (Zea mays L., var. Dekalb 535, CORN); test: Pre-emerge test, crop safety; conditions: crop damage rating 0-100, 14 days after application
Outline: (§7)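 Visual ratings on a 0-100 scale (0 no damage, 100 all plants dead) were taken at 14 days after treatment. Rates of 15-1000 g ai/ha in acetone, 187 l/ha, were sprayed onto soil one day after planting (pre-emerge) or onto 2-3 leaf plants with 0.25% v/v surfactant (post-emerge).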

[20] = test system: upland rice (Oryza sp., var. Tebonnet, RICE); test: Pre-emerge test, crop safety; conditions: crop damage rating 0-100, 14 days after application
Outline: as §7

## COc1c(Cl)cc(F)c(-n2c(=O)cc(C(F)(F)F)n(C)c2=O)c1NC(=O)OCc1cc(F)ccc1F [4-39]
[1]; 63 g ai/ha
  Pre-emerge Herbicidal Activity SETVI: 100
[1]; 250 g ai/ha
  Pre-emerge Herbicidal Activity SETVI: 100
[2]; 63 g ai/ha
  Pre-emerge Herbicidal Activity DIGSA: 100
[2]; 250 g ai/ha
  Pre-emerge Herbicidal Activity DIGSA: 100
[3]; 63 g ai/ha
  Pre-emerge Herbicidal Activity IPOHE: 80
[3]; 250 g ai/ha
  Pre-emerge Herbicidal Activity IPOHE: 100
[4]; 63 g ai/ha
  Pre-emerge Herbicidal Activity CHEAL: 100
[4]; 250 g ai/ha
  Pre-emerge Herbicidal Activity CHEAL: 100
[5]; 63 g ai/ha
  Pre-emerge Herbicidal Activity CASOB: 30
[5]; 250 g ai/ha
  Pre-emerge Herbicidal Activity CASOB: 90
[6]; 63 g ai/ha
  Pre-emerge Herbicidal Activity ECHCG: 60
[6]; 250 g ai/ha
  Pre-emerge Herbicidal Activity ECHCG: 80
[7]; 63 g ai/ha
  Pre-emerge Herbicidal Activity ABUTH: 100
[7]; 250 g ai/ha
  Pre-emerge Herbicidal Activity ABUTH: 100
[8]; 63 g ai/ha
  Pre-emerge Herbicidal Activity AMARE: 100
[8]; 250 g ai/ha
  Pre-emerge Herbicidal Activity AMARE: 100
[9]; 63 g ai/ha
  phytotoxicity rating SETVI: 80
[9]; 250 g ai/ha
  phytotoxicity rating SETVI: 90
[10]; 63 g ai/ha
  phytotoxicity rating DIGSA: 50
[10]; 250 g ai/ha
  phytotoxicity rating DIGSA: 80
[11]; 63 g ai/ha
  phytotoxicity rating IPOHE: 100
[11]; 250 g ai/ha
  phytotoxicity rating IPOHE: 100
[12]; 63 g ai/ha
  phytotoxicity rating CHEAL: 100
[12]; 250 g ai/ha
  phytotoxicity rating CHEAL: 100
[13]; 63 g ai/ha, rating scale 0-100 (0 no damage, 100 complete death)
  phytotoxicity rating AMARE: 100
[13]; 250 g ai/ha, rating scale 0-100
  phytotoxicity rating AMARE: 100
[14]; 63 g ai/ha
  phytotoxicity rating CASOB: 100
[14]; 250 g ai/ha
  phytotoxicity rating CASOB: 100
[15]; 63 g ai/ha
  phytotoxicity rating ECHCG: 60
[15]; 250 g ai/ha
  phytotoxicity rating ECHCG: 90
[16]; 63 g ai/ha
  phytotoxicity rating ABUTH: 100
[16]; 250 g ai/ha
  phytotoxicity rating ABUTH: 100
[17]; 63 g ai/ha
  phytotoxicity rating CORN (crop damage): 70
[17]; 250 g ai/ha
  phytotoxicity rating CORN (crop damage): 100
[18]; 63 g ai/ha
  phytotoxicity rating RICE (crop damage): 60
[18]; 250 g ai/ha
  phytotoxicity rating RICE (crop damage): 60
[19]; 63 g ai/ha
  Pre-emerge Herbicidal Activity CORN: 70
[19]; 250 g ai/ha
  Pre-emerge Herbicidal Activity CORN: 90
[20]; 63 g ai/ha
  Pre-emerge Herbicidal Activity RICE: 80
[20]; 250 g ai/ha
  Pre-emerge Herbicidal Activity RICE: 80
